# Laboratory results taken from US6706740B2, “Fungicidal heterocyclic aromatic amides and their compositions, methods of use and preparation” (Dow AgroSciences LLC, priority 1999, dated 2004).
# Key:
# Type in all cases: cell-based
# [1] = tested on: Phytophthora infestans (PHYTIN); experiment: microbe, parasite or virus in culture; conditions: Phytophthora infestans, read-out: PHYTIN in vitro Growth Inhibition
# [2] = tested on: Rhizoctonia solani (RHIZSO); experiment: microbe, parasite or virus in culture; conditions: Rhizoctonia solani, read-out: RHIZSO in vitro Growth Inhibition
# [3] = tested on: Stagonospora nodorum (Leptosphaeria nodorum—LEPTNO); experiment: In vitro fungal growth inhibition, Stagonospora nodorum (LEPTNO); conditions: Leptosphaeria; 25 ppm in growth medium; read-out: LEPTNO in vitro Growth Inhibition
# [4] = tested on: Magnaporthe grisea (Pyricularia oryzae—PYRIOR); experiment: microbe, parasite or virus in culture; conditions: Pyricularia oryzae, read-out: PYRIOR in vitro Growth Inhibition
# [5] = tested on: Ustilago maydis (USTIMA); experiment: microbe, parasite or virus in culture; conditions: Mycosarcoma maydis, read-out: USTIMA in vitro Growth Inhibition
# [6] = tested on: Mycosphaerella graminicola (Septoria tritici—SEPTTR); experiment: In vitro fungal growth inhibition, Mycosphaerella graminicola (SEPTTR); conditions: Zymoseptoria tritici; 25 ppm in growth medium; read-out: SEPTTR in vitro Growth Inhibition
SMILES,inhibition at 25 ppm [1] [%],inhibition at 25 ppm [2] [%],inhibition at 25 ppm [3] [%],inhibition at 25 ppm [4] [%],inhibition at 25 ppm [5] [%],inhibition at 25 ppm [6] [%]
COc1ccnc(C(=O)NCCCCCCCCCCC(=O)OCCSc2ccccc2)c1O [Compound 362],< 80,< 80,< 80,> 80,< 80,< 80
COc1ccnc(C(=O)NCCCCCCCCCCC(=O)Oc2cccc(NC(C)=O)c2)c1O [Compound 363],< 80,< 80,< 80,> 80,< 80,< 80
COc1ccnc(C(=O)NCCCCCCCCCCCC(=O)OCCSc2ccccc2)c1O [Compound 364],< 80,< 80,< 80,> 80,< 80,< 80
COc1ccnc(C(=O)NCCCCCCCCCCCC(=O)Oc2cccc(NC(C)=O)c2)c1O [Compound 365],< 80,< 80,< 80,> 80,< 80,< 80
COc1ccnc(C(=O)NCCCCC(=O)Oc2cccnc2Br)c1O [Compound 366],> 80,< 80,< 80,< 80,< 80,< 80
COc1ccnc(C(=O)NCCCCC(=O)Oc2cccc(NC(C)=O)c2)c1O [Compound 367],< 80,< 80,< 80,> 80,< 80,< 80
COc1ccnc(C(=O)NCCCCCCCC(=O)Oc2ccc(C)c(Cl)c2)c1O [Compound 368],< 80,> 80,< 80,< 80,< 80,< 80
COc1ccnc(C(=O)NC(CC2CCCCC2)C(=O)OC2CCNC2)c1O (stereo not drawn) [Compound 369],< 80,> 80,< 80,< 80,< 80,< 80
COc1ccnc(C(=O)NC(C)C(=O)OCCCCCc2ccccc2)c1O (stereo not drawn) [Compound 370],< 80,< 80,> 80,< 80,< 80,< 80
COc1ccnc(C(=O)NCC(=O)OCCCCCc2ccccc2)c1O [Compound 371],< 80,> 80,< 80,< 80,< 80,< 80
COc1ccnc(C(=O)NCC(=O)OC2CCCCC2)c1O [Compound 372],< 80,> 80,< 80,< 80,< 80,< 80
COc1ccnc(C(=O)NC(CC(N)=O)C(=O)OC/C=C(/C)CCC=C(C)C)c1O (stereo not drawn) [Compound 373],< 80,> 80,< 80,< 80,< 80,< 80
COc1ccnc(C(=O)NC(Cc2ccc(OCc3ccccc3)cc2)C(=O)O)c1O (stereo not drawn) [Compound 374],< 80,< 80,> 80,< 80,< 80,< 80
COc1ccnc(C(=O)N[C@H]2COC(=O)[C@H](Cc3ccccc3)[C@@H](OC(=O)C(C)C)[C@H](C)OC2=O)c1OC(=O)CC(C)C [Compound 606],< 80,< 80,> 80,< 80,< 80,< 80
COc1ccnc(C(=O)N[C@H]2COC(=O)[C@H](Cc3ccccc3)[C@@H](OC(=O)C(C)C)[C@H](C)OC2=O)c1OC(=O)c1ccccc1C [Compound 628],< 80,< 80,> 80,< 80,< 80,< 80
COc1ccnc(C(=O)N[C@H]2COC(=O)[C@H](Cc3ccccc3)[C@@H](OC(=O)C(C)C)[C@H](C)OC2=O)c1OC(=O)c1cccc(C)c1C [Compound 632],< 80,< 80,> 80,< 80,< 80,< 80
COc1ccnc(C(=O)N[C@H]2COC(=O)[C@H](Cc3ccccc3)[C@@H](OC(=O)C(C)C)[C@H](C)OC2=O)c1OC(=O)c1ccc(OC(Cl)(Cl)Cl)cc1 [Compound 635],< 80,< 80,> 80,< 80,< 80,< 80
COc1ccnc(C(=O)N[C@H]2COC(=O)[C@H](Cc3ccccc3)[C@@H](OC(=O)C(C)C)[C@H](C)OC2=O)c1OC(=O)c1ccccc1F [Compound 636],< 80,< 80,> 80,< 80,< 80,< 80
COc1ccnc(C(=O)N[C@H]2COC(=O)[C@H](Cc3ccccc3)[C@@H](OC(=O)C(C)C)[C@H](C)OC2=O)c1OC(=O)c1ccc(F)cc1 [Compound 637],< 80,< 80,> 80,< 80,< 80,< 80
COc1ccnc(C(=O)N[C@H]2COC(=O)[C@H](Cc3ccccc3)[C@@H](OC(=O)C(C)C)[C@H](C)OC2=O)c1OC(=O)c1ccc(F)cc1F [Compound 638],< 80,< 80,> 80,< 80,< 80,< 80
COc1ccnc(C(=O)N[C@H]2COC(=O)[C@H](Cc3ccccc3)[C@@H](OC(=O)C(C)C)[C@H](C)OC2=O)c1OC(=O)c1cccc(C(F)(F)F)c1 [Compound 640],< 80,< 80,> 80,< 80,< 80,< 80
COc1ccnc(C(=O)N[C@H]2COC(=O)[C@H](Cc3ccccc3)[C@@H](OC(=O)C(C)C)[C@H](C)OC2=O)c1OC(=O)c1c(F)c(F)c(F)c(F)c1F [Compound 642],< 80,< 80,> 80,< 80,< 80,< 80
COc1ccnc(C(=O)N[C@H]2COC(=O)[C@H](Cc3ccccc3)[C@@H](OC(=O)C(C)C)[C@H](C)OC2=O)c1OC(=O)c1ccc(Cl)cc1Cl [Compound 643],< 80,< 80,> 80,< 80,< 80,< 80
COc1ccnc(C(=O)N[C@H]2COC(=O)[C@H](Cc3ccccc3)[C@@H](OC(=O)C(C)C)[C@H](C)OC2=O)c1OC(=O)c1ccc(Cl)c(Cl)c1 [Compound 644],< 80,< 80,> 80,< 80,< 80,< 80
COc1ccnc(C(=O)N[C@H]2COC(=O)[C@H](Cc3ccccc3)[C@@H](OC(=O)C(C)C)[C@H](C)OC2=O)c1OC(=O)c1ccccc1Br [Compound 647],< 80,< 80,> 80,< 80,< 80,< 80
COc1ccnc(C(=O)N[C@H]2COC(=O)[C@H](Cc3ccccc3)[C@@H](OC(=O)C(C)C)[C@H](C)OC2=O)c1OC(=O)C(Cl)c1ccccc1 (stereo partly drawn) [Compound 649],< 80,< 80,> 80,> 80,< 80,< 80
COc1ccnc(C(=O)N[C@H]2COC(=O)[C@H](Cc3ccccc3)[C@@H](OC(=O)C(C)C)[C@H](C)OC2=O)c1OC(=O)/C=C/c1ccccc1 [Compound 651],< 80,< 80,> 80,< 80,< 80,< 80
COc1ccnc(C(=O)N[C@H]2COC(=O)[C@H](Cc3ccccc3)[C@@H](OC(=O)C(C)C)[C@H](C)OC2=O)c1OC(=O)c1cc(Cl)cnc1Cl [Compound 671],< 80,< 80,> 80,< 80,< 80,< 80
COc1ccnc(C(=O)N[C@H]2COC(=O)[C@H](Cc3ccccc3)[C@@H](OC(=O)C(C)C)[C@H](C)OC2=O)c1OC(=O)c1ccnc(Cl)c1 [Compound 672],< 80,< 80,> 80,< 80,< 80,< 80
